In US7872115B2, “Reporter assay screens for protein targets in Saccharomyces cerevisiae” (Schering Corporation, priority 2004, dated 2011):
In brackets after ≈: the same amount, converted by molar mass. Like-named read-outs stand apart in the source and are kept apart here.

Experiments:
[1] = test system: yeast Y229-1 (PCDC48 (SEQ ID NO: 53)-PH05-Renlla Luciferase); test: IC90 calculated from Renilla luciferase light output (baseline promoter reporter); format: cell-based, Saccharomyces cerevisiae; details: 24 hours at 30° C., YPD, 1% DMSO
[2] = test system: yeast Y229-1 (PCDC48 (SEQ ID NO: 53)-PH05-Renlla Luciferase); test: MIC determined visually; format: cell-based, Saccharomyces cerevisiae; details: minimum inhibitor concentration at which there is an approximately 90% drop in cell number relative to the uninhibited control
[3] = Saccharomyces cerevisiae, inhibitor concentration at which there is a 90% drop in luciferase signal relative to the uninhibited control, read-out: IC90
[4] = Saccharomyces cerevisiae, read-out: MIC

Compound	IC90 [1, 3] [µg/mL]	MIC [2, 4] [µg/mL]	IC90 ([1]; Saccharomyces cerevisiae, […], read-out: IC90) [µg/mL]	IC90 ([1]; inhibitor concentration at which there is a 90% drop in luciferase signal relative to the uninhibited control) [µg/mL]	MIC [2] [µg/mL]
C[C@@H](c1ncncc1F)[C@](O)(Cn1cncn1)c1ccc(F)cc1F [VOR, voriconazole]	0.008 (≈ 0.0229 µM)	0.015 (≈ 0.0429 µM)			
CN(C/C=C/C#CC(C)(C)C)Cc1cccc2ccccc12 [TRB, terbinafine]	1.4 (≈ 4.8 µM)	1.56 (≈ 5.35 µM)			
CC[C@H](C)C[C@H](C)CCCCCCCCC(=O)N[C@H]1C[C@@H](O)[C@@H](NCCN)NC(=O)[C@@H]2[C@@H](O)CCN2C(=O)[C@H]([C@H](O)CCN)NC(=O)[C@H]([C@H](O)[C@@H](O)c2ccc(O)cc2)NC(=O)[C@@H]2C[C@@H](O)CN2C(=O)[C@H]([C@@H](C)O)NC1=O [CSP, caspofungin]		0.015 (≈ 0.0137 µM)	0.02 (≈ 0.0183 µM)		
C[C@@H]1[C@H](O)[C@@H](C)/C=C/C=C/C=C/C=C/C=C/C=C/C=C/[C@H](O[C@@H]2O[C@H](C)[C@@H](O)[C@H](N)[C@@H]2O)C[C@@H]2O[C@](O)(C[C@@H](O)C[C@@H](O)[C@H](O)CC[C@@H](O)C[C@@H](O)CC(=O)O[C@H]1C)C[C@H](O)[C@H]2C(=O)O [AMB, amphotericin B]				0.3 (≈ 0.325 µM)	0.3 (≈ 0.325 µM)
OC(Cn1cncn1)(Cn1cncn1)c1ccc(F)cc1F [FLU, fluconazole]	0.3 (≈ 0.98 µM)	0.2 (≈ 0.653 µM)			
Nc1nc(=O)[nH]cc1F [5FC, 5-fluorocytosine]	1.9 (≈ 14.7 µM)	2.5 (≈ 19.4 µM)			
